# Values joined by “and” are separate entries in the source; they are usually repeats but may differ in a detail not shown here. Equal entries are not always repeated.
# T1: Recombinant human Vitamin D3 receptor (VDR) (Homo sapiens, UniProt P11473)
# T1 construct: purchased Pan Vera Corp
# T1 sequence (P11473 1-427): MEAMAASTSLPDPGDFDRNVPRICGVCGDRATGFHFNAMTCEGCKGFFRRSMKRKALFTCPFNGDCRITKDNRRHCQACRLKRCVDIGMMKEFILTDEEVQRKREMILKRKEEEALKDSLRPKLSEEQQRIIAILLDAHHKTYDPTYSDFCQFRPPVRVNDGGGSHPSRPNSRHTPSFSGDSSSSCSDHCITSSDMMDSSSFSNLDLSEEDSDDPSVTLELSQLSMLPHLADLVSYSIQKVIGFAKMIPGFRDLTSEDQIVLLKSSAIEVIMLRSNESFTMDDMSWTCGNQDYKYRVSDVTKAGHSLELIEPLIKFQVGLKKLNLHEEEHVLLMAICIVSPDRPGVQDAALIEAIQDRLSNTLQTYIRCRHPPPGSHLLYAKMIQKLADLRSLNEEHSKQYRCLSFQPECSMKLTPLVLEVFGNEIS
# Assays:
# [1] = molecular target: T1, Recombinant human Vitamin D3 receptor (VDR); assay: Inhibition of binding of immobilized ED-533 to VDR (SPR, BIACORE 3000); conditions: VDR 100 nM; for inhibitory activity compared with 1,25(OH)2 vitamin D3 (in words): compound 0, 10, 100 or 1000 nM, FIG. 7; for IC50: test compound 0-1000 nM, 1 hr room temperature, 5% DMSO
# Method: HBS-EP containing 5% DMSO was used as a running buffer, and the flow rate was set at 5 μl/min. Carboxyl groups of carboxymethyl dextran on the Sensor Chip CM5 were activated by injecting 100 μl of 0.05 M N-hydroxysuccinimide (NHS)/0.2 M N-ethyl-N′-(3-dimethyl aminopropyl)carbodiimide (EDC). […] Aliquots (10 to 40 μl) were injected onto the chip and immobilized by the amine coupling method. Excessive activated groups were blocked by injecting 100 μl of ethanolamine, pH 8.5. Non-covalently bound substances were washed out by injecting 10 μl each of 50% aqueous DMSO solution and 50% PrOH/10% DMSO/50 mM HCl.
# The structural formulae of OCT and ED-71 are represented by formulae (2) and (3), respectively. [drawing 2]
# [2] = BIACORE (SPR) binding activity assay of MBP-ERLBD and ERLBD to immobilized 7α-(9-aminononyl)estradiol; conditions: analyte 20 μg/ml, 10 μl injection; single values of duplicate (n = 2)
# Method: Immobilization of 7α-(9-aminononyl)estradiol on the Sensor Chip CM5 (Pharmacia) was carried out as follows. HBS was used as a continuous flow buffer, and the flow rate was set at 5 μl/min. Carboxyl groups of carboxymethyl dextran on the Sensor Chip CM5 were activated by injecting 100 μl of 0.05 M N-hydroxysuccinimide (NHS)/0.2 M N-ethyl-N′-(3-dimethyl aminopropyl)-carbodiimide (EDC). 7α-(9-aminononyl)estradiol (approx. 7 mg/ml in benzene, approx. 4.5 mg/ml in 2-PrOH) was first diluted 10-fold in EtOH, further diluted 10-fold using 10 mM Na-acetate buffer, pH 4.0 or pH 4.5. Aliquots (10 to 50 μl) were injected onto the chip and immobilized by the amine coupling method. Then, excessive activated groups were blocked by injecting 100 μl of ethanolamine, pH 8.5. Further, non-covalently bound substances were washed out by 10 μl of 0.1 M Gly-HCl buffer, pH 2.5 and 10 mM HCl.
# The reaction principle was illustrated in FIG. 2. MBP-ERLBD (20 μg/ml, 10 μl) or ERLBD (20 μg/ml, 10 μl) which were prepared by the above-described method were injected onto the chip to assay their binding activities to the immobilized 7α-(9-aminononyl)estradiol. Regeneration and washing of sensor chips were performed by injecting 10 μl of 7% propanol/50 mM HCl.
# For the purpose of measuring the reproducibility and lot-to-lot variations of the binding activity assay, the binding activity assay was performed using different lots of MBP-ERLBD and ERLBD preparations to compare assay values in duplicate. The binding levels of MBP-ERLBD (Lot #90) (20 μg/ml, 10 μl) were 2124.9 and 2048.9 RU, indicating a high reproducibility (% CV=2.6%) (Table 1). Highly reproducible data were also obtained for ERLBD (Lots. #110, #111, #112, and #113) (20 μg/ml, 10 μl each), as shown in Table 1. […] The results also indicate that binding activities can be accurately compared lot-to-lot variations, and that this method may be applied to the product quality control, etc. This method has also enabled easily monitoring active fractions in the purification process of ERLBD, leading to shortening of its preparation time. Results of examination of the reproducibility of the binding activity assay and the comparison thereof among sample lots are summarized in Table 1.
# Using MBP-ERLBD (Lot #90) and ERLBD (Lots. #110, #111, #112, and #113) as the binding molecule, the binding activity was assayed in duplicate. RU is the unit of surface plasmon resonance intensity. % CV represents the dispersion in duplicate, indicating the larger the value, the greater the dispersion.
# [3] = Conventional RI method binding activity assay using labeled oestradiol; conditions: 100% = [6,7-3H]oestradiol bound to all the ERLBD added, single replicate values
# Excerpt: FIG. 5 schematically illustrates a conventional binding assay using a ligand labeled with radioisotope (RI). ^3H-ligand stands for [6,7-^3H]estradiol, MBP-LBD for MBP-ERLBD, and LBD for ERLBD After the ligand and the binding molecule are mixed and allowed to stand at room temperature for 6 hr, the resulting mixture is subjected to the Bound/Free separation procedure. The amount of [6,7-^3H]estradiol bound to MBP-ERLBD or ERLBD is detected with a scintilator.
# The binding activity of [6,7-^3H]oestradiol (Amersham Pharmacia Biotech) to a full-length human estrogen receptor-α, ERLBD, and MBP-ERLBD was assayed according to a conventional method using a ligand labeled with radioisotope (RI) (Sasson, S. and Notides, A. C. (1988) Mol. Endcrinol., Vol. 2, No. 4, p307-312). The reaction is schematically illustrated in FIG. 5. The RI value obtained when [6,7-^3H]oestradiol bound to all the ERLBD added to the assay system was taken as 100%, and the relative binding activity was calculated. A full-length human estrogen receptor-α and MBP-ERLBD (lot #87 and #90) were used as the binding molecule. […] The method of the present invention uses proteins as the binding molecule, and the reaction time is thus short, so that the binding activity can be measured with a good reproducibility without causing a decrease in the binding activity.
"inhibitory activity compared with 1,25(OH)2 vitamin D3 (in words) [1]",IC50 [1],"Response [RU], binding level to immobilized 7α-(9-aminononyl)estradiol [2]",Molecule,"Relative activity (%), binding of [6,7-3H]oestradiol [3]"
almost the same inhibitory activities,500 nM,–,"C=C1/C(=C\C=C2/CCC[C@]3(C)[C@@H]([C@H](C)CCCC(C)(C)O)CC[C@@H]23)C[C@@H](O)[C@@H](OCCCO)[C@@H]1O [ED-71, 2β-(3-Hydroxypropoxy)-1α,25-dihydroxyvitamin D3]",–
almost the same inhibitory activities,520 nM,–,"C=C1/C(=C\C=C2/CCC[C@@]3(C)C2CC[C@@H]3[C@H](C)CCCC(C)(O)CCCCCCCCCCN)C[C@@H](O)C[C@@H]1O (stereo partly drawn) [ED-533, (1α,3β,5Z,7E)-25-(10-aminodecanyl)-27-nor-9,10-secocholesta-5,7,10(19)-triene-1,3,25-triol]",–
almost the same inhibitory activities,110 nM,–,"C=C1/C(=C\C=C2/CCC[C@]3(C)[C@@H]([C@H](C)OCCC(C)(C)O)CC[C@@H]23)C[C@@H](O)C[C@@H]1O [OCT, 1α,25-dihydroxy-22-oxavitamin D3]",–
–,–,about 2000 RU,"ERLBD: partial sequence containing the ligand binding domain of human estrogen receptor-α (Ala288-Arg555) (protein, UniProt P03372 288-555, looked up, fragment) AANLWPSPLMIKRSKKNSLALSLTADQMVSALLDAEPPILYSEYDPTRPFSEASMMGLLTNLADRELVHMINWAKRVPGFVDLTLHDQVHLLECAWLEILMIGLVWRSMEHPGKLLFAPNLLLDRNQGKCVEGMVEIFDMLLATSSRFRMMNLQGEEFVCLKSIILLNSGVYTFLSSTLKSLEEKDHIHRVLDKITDTLIHLMAKAGLTLQQQHQRLAQLLLILSHIRHMSNKGMEHLYSMKCKNVVPLYDLLLEMLDAHRLHAPTSR",about 10%
–,–,1613.7 RU and 1597.3 RU,"ERLBD #113: lot of purified ERLBD (protein, UniProt P03372 288-555, looked up, fragment) AANLWPSPLMIKRSKKNSLALSLTADQMVSALLDAEPPILYSEYDPTRPFSEASMMGLLTNLADRELVHMINWAKRVPGFVDLTLHDQVHLLECAWLEILMIGLVWRSMEHPGKLLFAPNLLLDRNQGKCVEGMVEIFDMLLATSSRFRMMNLQGEEFVCLKSIILLNSGVYTFLSSTLKSLEEKDHIHRVLDKITDTLIHLMAKAGLTLQQQHQRLAQLLLILSHIRHMSNKGMEHLYSMKCKNVVPLYDLLLEMLDAHRLHAPTSR",–
–,–,1825.8 RU and 1815.0 RU,"ERLBD #110: lot of purified ERLBD (protein, UniProt P03372 288-555, looked up, fragment) AANLWPSPLMIKRSKKNSLALSLTADQMVSALLDAEPPILYSEYDPTRPFSEASMMGLLTNLADRELVHMINWAKRVPGFVDLTLHDQVHLLECAWLEILMIGLVWRSMEHPGKLLFAPNLLLDRNQGKCVEGMVEIFDMLLATSSRFRMMNLQGEEFVCLKSIILLNSGVYTFLSSTLKSLEEKDHIHRVLDKITDTLIHLMAKAGLTLQQQHQRLAQLLLILSHIRHMSNKGMEHLYSMKCKNVVPLYDLLLEMLDAHRLHAPTSR",–
–,–,1255.7 RU and 1203.9 RU,"ERLBD #112: lot of purified ERLBD (protein, UniProt P03372 288-555, looked up, fragment) AANLWPSPLMIKRSKKNSLALSLTADQMVSALLDAEPPILYSEYDPTRPFSEASMMGLLTNLADRELVHMINWAKRVPGFVDLTLHDQVHLLECAWLEILMIGLVWRSMEHPGKLLFAPNLLLDRNQGKCVEGMVEIFDMLLATSSRFRMMNLQGEEFVCLKSIILLNSGVYTFLSSTLKSLEEKDHIHRVLDKITDTLIHLMAKAGLTLQQQHQRLAQLLLILSHIRHMSNKGMEHLYSMKCKNVVPLYDLLLEMLDAHRLHAPTSR",–
–,–,1032.0 RU and 990.3 RU,"ERLBD #111: lot of purified ERLBD (protein, UniProt P03372 288-555, looked up, fragment) AANLWPSPLMIKRSKKNSLALSLTADQMVSALLDAEPPILYSEYDPTRPFSEASMMGLLTNLADRELVHMINWAKRVPGFVDLTLHDQVHLLECAWLEILMIGLVWRSMEHPGKLLFAPNLLLDRNQGKCVEGMVEIFDMLLATSSRFRMMNLQGEEFVCLKSIILLNSGVYTFLSSTLKSLEEKDHIHRVLDKITDTLIHLMAKAGLTLQQQHQRLAQLLLILSHIRHMSNKGMEHLYSMKCKNVVPLYDLLLEMLDAHRLHAPTSR",–
